Data as given in ChEMBL document CHEMBL3817758, “Design and synthesis of dual 5-HT1A and 5-HT7 receptor ligands” (Bioorg Med Chem, 2016).

What was measured:
Assay in all cases: biochemical
[1] = target: T1, 5-hydroxytryptamine receptor 2C (Rattus norvegicus, UniProt P08909)
T1 sequence (P08909 whole entry): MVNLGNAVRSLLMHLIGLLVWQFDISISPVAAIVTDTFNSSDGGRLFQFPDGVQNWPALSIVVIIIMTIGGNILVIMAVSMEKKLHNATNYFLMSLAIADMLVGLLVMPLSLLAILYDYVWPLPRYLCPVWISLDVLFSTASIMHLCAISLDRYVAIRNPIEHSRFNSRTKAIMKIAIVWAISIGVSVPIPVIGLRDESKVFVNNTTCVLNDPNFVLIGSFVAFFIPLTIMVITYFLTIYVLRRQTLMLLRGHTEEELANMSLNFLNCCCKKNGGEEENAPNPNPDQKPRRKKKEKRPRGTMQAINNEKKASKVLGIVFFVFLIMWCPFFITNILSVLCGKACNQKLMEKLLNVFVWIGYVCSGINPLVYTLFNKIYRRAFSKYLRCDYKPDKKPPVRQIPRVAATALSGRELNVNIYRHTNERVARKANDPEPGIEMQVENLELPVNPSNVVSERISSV

[2] = target: Sodium-dependent serotonin transporter (Homo sapiens, UniProt P31645)
D(2) dopamine receptor = D(2) dopamine receptor (Homo sapiens, UniProt P14416)
D(4) dopamine receptor = target: T2, D(4) dopamine receptor (Rattus norvegicus, UniProt P30729)
T2 sequence (P30729 whole entry): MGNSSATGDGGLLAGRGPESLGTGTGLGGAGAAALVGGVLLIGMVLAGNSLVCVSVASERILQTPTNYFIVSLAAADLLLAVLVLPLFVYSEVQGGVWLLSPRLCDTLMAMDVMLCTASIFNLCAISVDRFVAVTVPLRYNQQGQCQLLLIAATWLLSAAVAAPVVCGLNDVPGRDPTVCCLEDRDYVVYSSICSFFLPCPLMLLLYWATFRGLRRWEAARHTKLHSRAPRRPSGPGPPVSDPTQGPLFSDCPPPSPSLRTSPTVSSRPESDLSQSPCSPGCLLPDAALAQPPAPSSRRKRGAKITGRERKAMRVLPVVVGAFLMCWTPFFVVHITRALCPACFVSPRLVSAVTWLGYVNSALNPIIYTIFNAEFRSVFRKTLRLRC

Chain of D(2) dopamine receptor (P14416 whole entry): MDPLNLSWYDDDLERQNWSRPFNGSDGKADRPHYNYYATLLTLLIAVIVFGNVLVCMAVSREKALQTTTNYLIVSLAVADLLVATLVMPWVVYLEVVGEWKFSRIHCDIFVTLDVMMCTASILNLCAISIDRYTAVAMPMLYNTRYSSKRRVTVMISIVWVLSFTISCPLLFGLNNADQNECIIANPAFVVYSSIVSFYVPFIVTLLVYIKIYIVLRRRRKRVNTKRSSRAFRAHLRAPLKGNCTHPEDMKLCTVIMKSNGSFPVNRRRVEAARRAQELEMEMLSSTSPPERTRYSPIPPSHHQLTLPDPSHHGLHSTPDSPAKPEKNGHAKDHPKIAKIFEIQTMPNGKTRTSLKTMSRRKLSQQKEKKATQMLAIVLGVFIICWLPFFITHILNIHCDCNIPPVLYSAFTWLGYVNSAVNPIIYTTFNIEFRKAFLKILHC
Chain of Sodium-dependent serotonin transporter (P31645 whole entry): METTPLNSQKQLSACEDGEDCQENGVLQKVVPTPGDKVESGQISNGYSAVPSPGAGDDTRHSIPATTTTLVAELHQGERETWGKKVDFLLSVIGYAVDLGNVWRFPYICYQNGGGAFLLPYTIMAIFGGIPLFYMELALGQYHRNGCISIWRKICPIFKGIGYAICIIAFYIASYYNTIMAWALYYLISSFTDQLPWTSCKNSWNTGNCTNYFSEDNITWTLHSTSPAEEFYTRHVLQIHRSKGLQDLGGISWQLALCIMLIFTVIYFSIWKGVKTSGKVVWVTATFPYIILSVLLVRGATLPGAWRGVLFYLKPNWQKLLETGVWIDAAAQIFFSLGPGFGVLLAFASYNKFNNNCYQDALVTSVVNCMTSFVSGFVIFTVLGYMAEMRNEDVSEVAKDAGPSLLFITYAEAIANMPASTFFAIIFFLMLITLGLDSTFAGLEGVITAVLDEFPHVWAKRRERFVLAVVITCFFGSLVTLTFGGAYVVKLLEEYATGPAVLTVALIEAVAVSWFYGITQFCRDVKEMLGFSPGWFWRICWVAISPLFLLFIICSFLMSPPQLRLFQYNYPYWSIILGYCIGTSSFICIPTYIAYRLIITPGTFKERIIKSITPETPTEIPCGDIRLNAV

Structure (SMILES) | Ki [1] | Ki [2] | Ki (D(2) dopamine receptor) | Ki (D(4) dopamine receptor)
COc1ccc(C(=O)CCCN2CCc3ccccc3C2)cc1 | 1400 nM | – | – | –
O=C1c2ccccc2C(=O)N1CCCCN1CCC2CCCCC2C1 (stereo not given) | – | > 10000 nM | > 10000 nM | > 10000 nM
NC(=O)c1ccc(C(=O)CCCN2CCc3ccccc3C2)cc1 | 1890 nM | – | – | –
